In ChEMBL document CHEMBL3046731, “Synthesis and antifungal activity of 1-substitutedphenyl-3-(5-halobenzimidazol-2-yl) acylurea” (J Pestic Sci, 2010):
Converted amounts (≈) assume the structure as drawn.

Key:
[1] = tested on: Botrytis cinerea; test: Antifungal activity against Botryotinia fuckeliana assessed as inhibition of mycelium growth on potato dextrose agar at 25 +/- 1 degC for 96 hr; type: functional, organism-based
[2] = tested on: Sclerotinia sclerotiorum; test: Antifungal activity against Sclerotinia sclerotiorum assessed as inhibition of mycelium growth on potato dextrose agar at 25 +/- 1 degC for 96 hr; type: functional, organism-based

O=C(NC(=O)c1nc2cc(Cl)ccc2[nH]1)Nc1ccc(Cl)c(Cl)c1
EC50 [1]: 12.6 µg/mL (≈ 33 µM)
EC50 [2]: 5.5 µg/mL (≈ 14.3 µM)

O=C(NC(=O)c1nc2cc(F)ccc2[nH]1)Nc1ccc([N+](=O)[O-])cc1
EC50 [1]: 10.4 µg/mL (≈ 30.2 µM)
EC50 [2]: 8.71 µg/mL (≈ 25.4 µM)

O=C(NC(=O)c1nc2cc(F)ccc2[nH]1)Nc1ccc(Cl)cc1
EC50 [1]: 4.65 µg/mL (≈ 14 µM)
EC50 [2]: 14.6 µg/mL (≈ 43.9 µM)

O=C(NC(=O)c1nc2cc(Cl)ccc2[nH]1)Nc1ccc(Br)cc1
EC50 [1]: 3.94 µg/mL (≈ 10 µM)
EC50 [2]: 9.28 µg/mL (≈ 23.6 µM)

O=C(NC(=O)c1nc2cc(Cl)ccc2[nH]1)Nc1ccc([N+](=O)[O-])cc1
EC50 [1]: 30.7 µg/mL (≈ 85.4 µM)
EC50 [2]: 9.14 µg/mL (≈ 25.4 µM)

O=C(NC(=O)c1nc2cc(F)ccc2[nH]1)Nc1ccc(Br)cc1
EC50 [1]: 13.6 µg/mL (≈ 36.1 µM)
EC50 [2]: 8.66 µg/mL (≈ 23 µM)

O=C(NC(=O)c1nc2cc(Cl)ccc2[nH]1)Nc1ccc(Cl)cc1
EC50 [1]: 18.9 µg/mL (≈ 54 µM)
EC50 [2]: 6.05 µg/mL (≈ 17.3 µM)

O=C(NC(=O)c1nc2cc(Cl)ccc2[nH]1)Nc1ccc(F)cc1
EC50 [1]: 8.76 µg/mL (≈ 26.3 µM)
EC50 [2]: 6.23 µg/mL (≈ 18.7 µM)

O=C(NC(=O)c1nc2cc(F)ccc2[nH]1)Nc1ccc(F)cc1
EC50 [1]: 10.9 µg/mL (≈ 34.6 µM)
EC50 [2]: 10.9 µg/mL (≈ 34.6 µM)

O=C(NC(=O)c1nc2cc(F)ccc2[nH]1)Nc1ccccc1
EC50 [1]: 19.9 µg/mL (≈ 66.9 µM)
EC50 [2]: 6.55 µg/mL (≈ 22 µM)

O=C(NC(=O)c1nc2cc(Cl)ccc2[nH]1)Nc1ccccc1
EC50 [1]: 22.4 µg/mL (≈ 71.2 µM)
EC50 [2]: 11.7 µg/mL (≈ 37 µM)

O=C(NC(=O)c1nc2cc(F)ccc2[nH]1)Nc1ccc(Cl)c(Cl)c1
EC50 [1]: 11.5 µg/mL (≈ 31.5 µM)
EC50 [2]: 9.03 µg/mL (≈ 24.6 µM)

COC(=O)NC(=S)Nc1ccccc1NC(=S)NC(=O)OC [THIOPHANATE METHYL]
EC50 [1]: 1.03 µg/mL (≈ 3.01 µM)
EC50 [2]: 10.5 µg/mL (≈ 30.5 µM)
